Laboratory results from patent US10118935B2, “Melampomagnolide B dimers” (priority 2014, dated 2018).

How the values were obtained:
SF-268 = assay: NCI 60 cell line five dose, CNS Cancer
OVCAR-4 = assay: NCI 60 cell line five dose, Ovarian Cancer
HCT-116 = assay: NCI 60 cell line five dose, Colon Cancer
SF-539 = assay: NCI 60 cell line five dose, CNS Cancer
MDA-MB-231/ATCC = assay: NCI 60 cell line five dose, Breast Cancer
NCI-H226 = assay: NCI 60 cell line five dose, Non-Small Cell Lung Cancer
M9ENL AML cell lines = details: read-out: LC50; M9ENL AML cell lines; after 24 hours of drug exposure
DU-145 = assay: NCI 60 cell line five dose, Prostate Cancer
SN12C = assay: NCI 60 cell line five dose, Renal Cancer
NCI/ADR-RES = assay: NCI 60 cell line five dose, Ovarian Cancer; details: NCI/ADR-RES
SK-MEL-5 = assay: NCI 60 cell line five dose, Melanoma; details: SK-MEL-5

Compound: C=C1C(=O)O[C@H]2[C@H]1CC/C(COC(=O)NCCCCCNC(=O)OC/C1=C/CC[C@@]3(C)O[C@H]3[C@H]3OC(=O)C(=C)[C@@H]3CC1)=C\CC[C@@]1(C)O[C@@H]21 [JVM 2-76, bis(((1aR,7aS,10aS,10bS,E)-1a-Methyl-8-methylene-9-oxo-1a,2,3,6,7,7a,8,9,10a,10b-decahydrooxireno[2′,3′:9,10]cyclodeca[1,2-b]furan-5-yl)methyl)pentane-1,5-diyldicarbamate]
- GI50 (SF-268): 3.08 µM
- TGI (SF-268): 12.0 µM
- CC50 (SF-268; read-out: LC50): 42.3 µM
- GI50 (OVCAR-4): 2.72 µM
- TGI (OVCAR-4): 15.2 µM
- CC50 (OVCAR-4; read-out: LC50): 41.9 µM
- GI50 (HCT-116): 0.54 µM
- TGI (HCT-116): 1.86 µM
- CC50 (HCT-116; read-out: LC50): 4.56 µM
- GI50 (SF-539): 1.92 µM
- TGI (SF-539): 4.56 µM
- CC50 (SF-539; read-out: LC50): 12.7 µM
- GI50 (MDA-MB-231/ATCC): 1.47 µM
- TGI (MDA-MB-231/ATCC): 3.07 µM
- CC50 (MDA-MB-231/ATCC; read-out: LC50): 6.4 µM
- GI50 (NCI-H226): 2.56 µM
- TGI (NCI-H226): 8.18 µM
- CC50 (NCI-H226; read-out: LC50): 30.9 µM
- CC50 (M9ENL AML cell lines): 1.35 µM
- GI50 (DU-145): 3.06 µM
- TGI (DU-145): 9.55 µM
- CC50 (DU-145; read-out: LC50): 32.6 µM
- GI50 (SN12C): 2.49 µM
- TGI (SN12C): 10.7 µM
- CC50 (SN12C; read-out: LC50): 45.5 µM
- GI50 (NCI/ADR-RES): 70 µM
- TGI (NCI/ADR-RES): >100 µM
- CC50 (NCI/ADR-RES; read-out: LC50): > 100 µM
- GI50 (SK-MEL-5): 3.19 µM
- TGI (SK-MEL-5): 12.2 µM
- CC50 (SK-MEL-5; read-out: LC50): 37 µM
